US20220220095A1, “N-((HETEROARYL)METHYL)-1-TOSYL-1H-PYRAZOLE-3-CARBOXAMIDE DERIVATIVES AS Kv3 POTASSIUM CHANNEL ACTIVATORS FOR TREATING NEUROLOGICAL AND [sequence] DISORDERS” (H. Lundbeck A/S, priority 2019, published 2022)

Target: T1, hKv3.1b (Homo sapiens, UniProt P48547)
T1 construct: expressed in transfected cells
T1 sequence (P48547 1-585 isoform P48547-2): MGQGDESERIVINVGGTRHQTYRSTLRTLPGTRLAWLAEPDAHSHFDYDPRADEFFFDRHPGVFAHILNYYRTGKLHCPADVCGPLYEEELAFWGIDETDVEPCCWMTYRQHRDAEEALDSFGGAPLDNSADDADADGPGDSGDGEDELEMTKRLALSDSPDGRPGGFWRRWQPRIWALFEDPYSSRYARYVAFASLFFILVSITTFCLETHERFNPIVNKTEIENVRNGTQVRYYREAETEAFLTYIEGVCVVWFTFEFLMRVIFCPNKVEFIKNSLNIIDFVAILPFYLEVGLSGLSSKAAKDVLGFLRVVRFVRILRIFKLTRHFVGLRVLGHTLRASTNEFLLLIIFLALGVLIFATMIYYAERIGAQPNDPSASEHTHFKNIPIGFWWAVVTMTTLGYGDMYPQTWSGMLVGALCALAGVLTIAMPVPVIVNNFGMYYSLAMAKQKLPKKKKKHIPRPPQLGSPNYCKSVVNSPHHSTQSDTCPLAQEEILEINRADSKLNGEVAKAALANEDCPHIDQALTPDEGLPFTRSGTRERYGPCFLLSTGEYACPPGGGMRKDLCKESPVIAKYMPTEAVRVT
Assay: Automated whole-cell patch-clamp (QPatch-16x) on HEK-293 cells stably expressing hKv3.1b: shift of voltage threshold for channel activation
Assay type: cell-based
Settings: HEK-293 hKv3.1b; for ECdelta5mV: concentration needed to shift the threshold 5 mV, read out from fitted concentration response curve; for Max Delta threshold: maximum absolute shift of activation threshold to more hyperpolarized potentials at the tested concentrations (0.37, 1.11, 3.33, 10, 30 μM)
Protocol: HEK-293 cells stably expressing hKv3.1b was used for the experiments. Cells were cultured in DMEM medium supplemented with 10% Fetal Bovine Serum, 100 ug/mL Geneticidin and 100 u/mL Penicillin/Streptomycin (all from Gibco). Cells were grown to 80-90% confluency at 37° C. and 5% CO2. On the day of the experiment the cells were detached from the tissue culture flasks by Detachin and resuspended in serum free medium containing 25 mM HEPES and transferred to the cell hotel of the QPatch. The cells were used for experiments 0-5 hours after detachment.
Patch-clamp recordings were performed using the automated recording system QPatch-16x (Sophion Bioscience, Denmark). Cells were centrifuged, SFM removed and the cells were resuspended in extracellular buffer containing (in mM): 145 NaCl, 4 KCl, 1 MgCl2, 2 CaCl2, 10 HEPES and 10 glucose (added fresh on the day of experiment); pH 7.4 adjusted with NaOH, 305 mOsm adjusted with sucrose.
Single cell whole-cell recordings were carried out using an intracellular solution containing (in mM): 120 KCl, 32.25/10 KOH/EGTA, 5.374 CaCl2, 1.75 MgCl2, 10 HEPES, 4 Na2ATP (added fresh on the day), pH 7.2 adjusted with KOH, […] adjusted with sucrose. Cell membrane potentials were held at −80 mV and currents were evoked by voltage steps (200 ms duration) from −70 mV to +10 mV (in 10 mV increments).
Leak subtraction protocol was applied at −33% of the sweep amplitude, and serial resistance values were constantly monitored.
Any cell where serial resistance exceeded 25 MOhm, membrane resistance less than 200 MOhm or current size at −10 mV less than 200 pA was eliminated from the subsequent analysis.
Data analysis was performed using Sophion's QPatch assay software in combination with Microsoft Excel™ (Redmond, Wash., USA).
Current voltage relationships were plotted from the peak current at the individual voltage steps normalized to the vehicle addition at 10 mV. The voltage threshold for channel activation was defined as 5% activation of the peak current at 10 mV in presence of vehicle. The activity of the compounds was described as the ability to shift this current voltage relationship to more hyperpolarized potentials and is given as the maximum absolute shift possible at the tested concentrations (0.37, 1.11, 3.33, 10, 30 μM). Concentration response curves were plotted from the threshold shift at the individual concentrations and were fitted excel fit model 205 sigmodal dose-response model (fit=A+((B−A)/1+((C/x)^D)))), where A is the minimum value, B the maximum value, C the EC50 value and D the slope of the curve. The concentration needed to shift the threshold 5 mV was readout from this curve (ECdelta 5 mV).

Row | Compound | ECdelta5mV [nM] | Max Delta threshold [mV]
1 | Cc1cc(CNC(=O)c2ccn(S(=O)(=O)c3ccc(F)cc3)n2)on1 [Compound 31, 1-(4-fluorobenzene-1-sulfonyl)-N-[(3-methyl-1,2-oxazol-5-yl)methyl]-1H-pyrazole-3-carboxamide] | 4100 | 13
2 | COc1ccc(S(=O)(=O)n2ccc(C(=O)NCc3ncccc3F)n2)cc1 [Compound 86, N-[(3-fluoro-2-pyridyl)methyl]-1-(4-methoxyphenyl)sulfonyl-pyrazole-3-carboxamide] | 2400 | 19
3 | Cc1ccc(S(=O)(=O)n2ccc(C(=O)NCc3ncn(C)n3)n2)cc1 [Compound 60, 1-(4-methylbenzene-1-sulfonyl)-N-[(1-methyl-1H-1,2,4-triazol-3-yl)methyl]-1H-pyrazole-3-carboxamide] | 2900 | 18
4 | Cc1cnc(CNC(=O)c2ccn(S(=O)(=O)c3cccc(Cl)c3)n2)cn1 [Compound 75, 1-(3-chlorophenyl)sulfonyl-N-[(5-methylpyrazin-2-yl)methyl]pyrazole-3-carboxamide] | 3200 | 17
5 | Cc1ccc(CNC(=O)c2ccn(S(=O)(=O)c3ccccc3C)n2)nc1 [Compound 27, 1-(2-methylbenzene-1-sulfonyl)-N-[(5-methylpyridin-2-yl)methyl]-1H-pyrazole-3-carboxamide] | 3300 | 18
6 | COc1ccc(S(=O)(=O)n2ccc(C(=O)NCc3cocn3)n2)cc1 [Compound 12, 1-(4-methoxybenzene-1-sulfonyl)-N-[(1,3-oxazol-4-yl)methyl]-1H-pyrazole-3-carboxamide] | 3800 | 16
7 | Cc1ccccc1S(=O)(=O)n1ccc(C(=O)NCc2cnn(C)c2)n1 [Compound 28, 1-(2-methylbenzene-1-sulfonyl)-N-[(1-methyl-1H-pyrazol-4-yl)methyl]-1H-pyrazole-3-carboxamide] | 2400 | 22
8 | Cc1ccc(S(=O)(=O)n2ccc(C(=O)NCc3cnn(C)c3)n2)cc1 [Compound 62, 1-(4-methylbenzene-1-sulfonyl)-N-[(1-methyl-1H-pyrazol-4-yl)methyl]-1H-pyrazole-3-carboxamide] | 1600 | 25
9 | Cc1ccc(S(=O)(=O)n2ccc(C(=O)NCc3cnc(C)nc3)n2)cc1 [Compound 50, 1-(4-methylbenzene-1-sulfonyl)-N-[(2-methylpyrimidin-5-yl)methyl]-1H-pyrazole-3-carboxamide] | 1700 | 24
10 | Cc1cnc(CNC(=O)c2ccn(S(=O)(=O)c3ccc(OC(F)F)cc3)n2)cn1 [Compound 65, 1-[4-(difluoromethoxy)phenyl]sulfonyl-N-[(5-methylpyrazin-2-yl)methyl]pyrazole-3-carboxamide] | 3600 | 25
11 | Cc1cnc(CNC(=O)c2ccn(S(=O)(=O)c3ccc(F)c(Cl)c3)n2)cn1 [Compound 69, 1-(3-chloro-4-fluoro-phenyl)sulfonyl-N-[(5-methylpyrazin-2-yl)methyl]pyrazole-3-carboxamide] | 4600 | 16
12 | Cc1cnc(CNC(=O)c2ccn(S(=O)(=O)c3ccc(C4CC4)cc3)n2)cn1 [Compound 79, 1-(4-cyclopropylphenyl)sulfonyl-N-[(5-methylpyrazin-2-yl)methyl]pyrazole-3-carboxamide] | 990 | 32
13 | COc1ccc(S(=O)(=O)n2ccc(C(=O)NCc3ncc(C)cn3)n2)cc1 [Compound 37, 1-(4-methoxybenzene-1-sulfonyl)-N-[(5-methylpyrimidin-2-yl)methyl]-1H-pyrazole-3-carboxamide] | 2400 | 27
14 | Cc1cnc(CNC(=O)c2ccn(S(=O)(=O)c3ccc(C(F)(F)F)cc3)n2)cn1 [Compound 78, N-[(5-methylpyrazin-2-yl)methyl]-1-[4-(trifluoromethyl)phenyl]sulfonyl-pyrazole-3-carboxamide] | 3000 | 23
15 | COc1ccc(S(=O)(=O)n2ccc(C(=O)NCc3cnc(C)cn3)n2)c(F)c1 [Compound 68, 1-(2-fluoro-4-methoxy-phenyl)sulfonyl-N-[(5-methylpyrazin-2-yl)methyl]pyrazole-3-carboxamide] | 2400 | 42
16 | Cc1ccc(S(=O)(=O)n2ccc(C(=O)NCc3ncco3)n2)cc1 [Compound 45, 1-(4-methylbenzene-1-sulfonyl)-N-[(1,3-oxazol-2-yl)methyl]-1H-pyrazole-3-carboxamide] | 2800 | 15
17 | COc1ccc(S(=O)(=O)n2ccc(C(=O)NCc3ncc(C)o3)n2)cc1 [Compound 36, 1-(4-methoxybenzene-1-sulfonyl)-N-[(5-methyl-1,3-oxazol-2-yl)methyl]-1H-pyrazole-3-carboxamide] | 1500 | 17
18 | Cc1cnc(CNC(=O)c2ccn(S(=O)(=O)c3ccccc3C)n2)o1 [Compound 17, 1-(2-methylbenzene-1-sulfonyl)-N-[(5-methyl-1,3-oxazol-2-yl)methyl]-1H-pyrazole-3-carboxamide] | 3900 | 15
19 | COc1ccc(S(=O)(=O)n2ccc(C(=O)NCc3cnc(C)cn3)n2)c(Cl)c1 [Compound 82, 1-(2-chloro-4-methoxy-phenyl)sulfonyl-N-[(5-methylpyrazin-2-yl)methyl]pyrazole-3-carboxamide] | 1600 | 29
20 | Cc1ccc(S(=O)(=O)n2ccc(C(=O)NCc3nc(C)cs3)n2)cc1 [Compound 61, 1-(4-methylbenzene-1-sulfonyl)-N-[(4-methyl-1,3-thiazol-2-yl)methyl]-1H-pyrazole-3-carboxamide] | 2000 | 19
21 | COc1ccc(S(=O)(=O)n2ccc(C(=O)NCc3cnccn3)n2)c(C)c1 [Compound 3, 1-(4-methoxy-2-methylbenzene-1-sulfonyl)-N-[(pyrazin-2-yl)methyl]-1H-pyrazole-3-carboxamide] | 1600 | 25
22 | Cc1ccc(S(=O)(=O)n2ccc(C(=O)NCc3nccs3)n2)cc1 [Compound 59, 1-(4-methylbenzene-1-sulfonyl)-N-[(1,3-thiazol-2-yl)methyl]-1H-pyrazole-3-carboxamide] | 3000 | 14
23 | Cc1cnc(CNC(=O)c2ccn(S(=O)(=O)c3ccc(Cl)cc3)n2)cn1 [Compound 76, 1-(4-chlorophenyl)sulfonyl-N-[(5-methylpyrazin-2-yl)methyl]pyrazole-3-carboxamide] | 1500 | 25
24 | Cn1ccc(CNC(=O)c2ccn(S(=O)(=O)c3ccc(F)cc3)n2)n1 [Compound 35, 1-(4-fluorobenzene-1-sulfonyl)-N-[(1-methyl-1H-pyrazol-3-yl)methyl]-1H-pyrazole-3-carboxamide] | 4800 | 12
25 | COc1ccc(S(=O)(=O)n2ccc(C(=O)NCc3cnc(C)cn3)n2)cc1 [Compound 5, 1-(4-methoxybenzene-1-sulfonyl)-N-[(5-methylpyrazin-2-yl)methyl]-1H-pyrazole-3-carboxamide] | 1800 | 26
